Tested on: MV-4-11 cells
Test: Gene expression microarray analysis (Affymetrix PrimeView) and GSEA
Assay type: cell-based, human
Design: RFU PODN (11730768_x_at) / Fold change /veh PODN (11730768_x_at) / RFU LINC00158 (11744669_a_at) / Fold change /veh LINC00158 (11744669_a_at) / RFU DUSP10 (11751237_a_at) / Fold change /veh DUSP10 (11751237_a_at) / RFU ID3 (11757404_x_at) / Fold change /veh ID3 (11757404_x_at) / RFU PLEKHG5 (11737974_s_at) / Fold change /veh PLEKHG5 (11737974_s_at) / RFU LRRC4B (11730491_at) / Fold change /veh LRRC4B (11730491_at) / RFU GIMAP4 (11747438_a_at) / Fold change /veh GIMAP4 (11747438_a_at) / RFU KRT8 (11758183_x_at) / Fold change /veh KRT8 (11758183_x_at) / RFU CNN1 (11734310_a_at) / Fold change /veh CNN1 (11734310_a_at) / RFU VPS37D (11726825_at) / Fold change /veh VPS37D (11726825_at) / RFU C10orf10 (11716522_x_at) / Fold change /veh C10orf10 (11716522_x_at) / RFU KIR2DL2 /// KIR2DL4 /// KIR2DL5A /// KIR2DL5B /// KIR2DS1 /// KIR2DS2 /// KIR2DS3 /// KIR2DS4 /// KIR3DL3 /// KIR3DL3 /// KIR3DS1 (11738374_at) / Fold change /veh KIR2DL2 /// KIR2DL4 /// KIR2DL5A /// KIR2DL5B /// KIR2DS1 /// KIR2DS2 /// KIR2DS3 /// KIR2DS4 /// KIR3DL3 /// KIR3DL3 /// KIR3DS1 (11738374_at) / RFU C1QL1 (11718748_at) / Fold change /veh C1QL1 (11718748_at) / RFU TMPRSS4 (11747572_a_at) / Fold change /veh TMPRSS4 (11747572_a_at) / RFU HAMP (11756126_x_at) / Fold change /veh HAMP (11756126_x_at) / RFU RNFT2 (11725882_a_at) / Fold change /veh RNFT2 (11725882_a_at) / RFU NR4A2 (11747474_a_at) / Fold change /veh NR4A2 (11747474_a_at) / RFU ABCC12 (11746883_a_at) / Fold change /veh ABCC12 (11746883_a_at) / RFU TMEM136 (11760407_x_at) / Fold change /veh TMEM136 (11760407_x_at) / RFU CLDN22 /// WWC2 (11732394_at) / Fold change /veh CLDN22 /// WWC2 (11732394_at) / RFU HLA-DPB1 (11760878_x_at) / Fold change /veh HLA-DPB1 (11760878_x_at) / RFU SPINT1 (11716480_a_at) / Fold change /veh SPINT1 (11716480_a_at) / RFU GAP43 (11754022_s_at) / Fold change /veh GAP43 (11754022_s_at) / RFU A4GNT (11735810_at) / Fold change /veh A4GNT (11735810_at) / RFU PRB3 (11715151_x_at) / Fold change /veh PRB3 (11715151_x_at) / RFU TUBB4B (11761932_at) / Fold change /veh TUBB4B (11761932_at) / RFU CAPN14 (11732068_a_at) / Fold change /veh CAPN14 (11732068_a_at) / RFU TMCC2 (11721928_a_at) / Fold change /veh TMCC2 (11721928_a_at) / RFU IRGQ (11745062_a_at) / Fold change /veh IRGQ (11745062_a_at) / RFU FAM174B (11720279_a_at) / Fold change /veh FAM174B (11720279_a_at) / RFU TMPRSS4 (11748680_a_at) / Fold change /veh TMPRSS4 (11748680_a_at) / RFU FAM212B (11763350_a_at) / Fold change /veh FAM212B (11763350_a_at) / RFU PLEKHG5 (11743358_a_at) / Fold change /veh PLEKHG5 (11743358_a_at) / RFU ZSCAN30 (11745921_a_at) / Fold change /veh ZSCAN30 (11745921_a_at) / RFU CMKLR1 (11741424_a_at) / Fold change /veh CMKLR1 (11741424_a_at) / RFU LOC101060620 /// MAPK8IP1 (11723275_at) / Fold change /veh LOC101060620 /// MAPK8IP1 (11723275_at) / RFU SPTSSB (11747773_x_at) / Fold change /veh SPTSSB (11747773_x_at) / RFU PRSS12 (11739890_at) / Fold change /veh PRSS12 (11739890_at) / RFU BIN1 (11741810_x_at) / Fold change /veh BIN1 (11741810_x_at) / RFU WNT11 (11732464_a_at) / Fold change /veh WNT11 (11732464_a_at) / RFU C10orf10 (11716521_a_at) / Fold change /veh C10orf10 (11716521_a_at) / RFU C5orf56 (11738089_at) / Fold change /veh C5orf56 (11738089_at) / RFU CYB561 (11721691_x_at) / Fold change /veh CYB561 (11721691_x_at) / RFU ANKRD19P (11752326_a_at) / Fold change /veh ANKRD19P (11752326_a_at) / RFU OR2T12 /// OR2T33 /// OR2T8 (11738714_s_at) / Fold change /veh OR2T12 /// OR2T33 /// OR2T8 (11738714_s_at) / RFU VCAN (11748164_a_at) / Fold change /veh VCAN (11748164_a_at) / RFU JSRP1 (11732532_at) / Fold change /veh JSRP1 (11732532_at) / RFU KRTAP10-11 (11738290_x_at) / Fold change /veh KRTAP10-11 (11738290_x_at) / RFU MYO3A (11730013_a_at) / Fold change /veh MYO3A (11730013_a_at) / RFU EBF3 (11725865_a_at) / Fold change /veh EBF3 (11725865_a_at) / RFU CAMK2N1 (11719241_x_at) / Fold change /veh CAMK2N1 (11719241_x_at) / RFU C5orf56 (11738088_a_at) / Fold change /veh C5orf56 (11738088_a_at) / RFU OLFML3 (11715873_a_at) / Fold change /veh OLFML3 (11715873_a_at) / RFU LOC100653217 /// NTM (11731650_a_at) / Fold change /veh LOC100653217 /// NTM (11731650_a_at) / RFU MAPK11 (11762145_a_at) / Fold change /veh MAPK11 (11762145_a_at) / RFU FIZ1 (11724087_x_at) / Fold change /veh FIZ1 (11724087_x_at) / RFU OASL (11726364_x_at) / Fold change /veh OASL (11726364_x_at) / RFU SOX15 (11748057_x_at) / Fold change /veh SOX15 (11748057_x_at) / RFU CD79A (11719716_a_at) / Fold change /veh CD79A (11719716_a_at) / RFU HIST1H1D (11736915_at) / Fold change /veh HIST1H1D (11736915_at) / RFU CASKIN2 (11723855_a_at) / Fold change /veh CASKIN2 (11723855_a_at) / RFU LOC730098 (11760151_x_at) / Fold change /veh LOC730098 (11760151_x_at) / RFU OR4N2 (11742367_at) / Fold change /veh OR4N2 (11742367_at) / RFU PRRT2 (11749266_a_at) / Fold change /veh PRRT2 (11749266_a_at) / RFU SNX32 (11753110_a_at) / Fold change /veh SNX32 (11753110_a_at) / RFU CDHR5 (11726645_a_at) / Fold change /veh CDHR5 (11726645_a_at) / RFU RCAN1 (11760418_a_at) / Fold change /veh RCAN1 (11760418_a_at) / RFU FAM167A (11723789_a_at) / Fold change /veh FAM167A (11723789_a_at) / RFU FAM26E (11764081_at) / Fold change /veh FAM26E (11764081_at) / RFU ISYNA1 (11749810_s_at) / Fold change /veh ISYNA1 (11749810_s_at) / RFU ACY1 (11761880_at) / Fold change /veh ACY1 (11761880_at) / RFU 11764098_at / Fold change /veh 11764098_at / RFU SAMD14 (11745864_x_at) / Fold change /veh SAMD14 (11745864_x_at) / RFU NPB (11741838_a_at) / Fold change /veh NPB (11741838_a_at) / RFU TMPRSS6 (11731388_a_at) / Fold change /veh TMPRSS6 (11731388_a_at) / RFU KRTAP10-2 (11738614_at) / Fold change /veh KRTAP10-2 (11738614_at) / RFU ARHGAP8 /// PRR5-ARHGAP8 (11727945_x_at) / Fold change /veh ARHGAP8 /// PRR5-ARHGAP8 (11727945_x_at) / RFU KRTAP5-7 /// NADSYN1 (11734609_at) / Fold change /veh KRTAP5-7 /// NADSYN1 (11734609_at) / RFU RASL12 (11751679_a_at) / Fold change /veh RASL12 (11751679_a_at) / RFU CDKN2B (11736163_a_at) / Fold change /veh CDKN2B (11736163_a_at) / RFU PRF1 (11729649_at) / Fold change /veh PRF1 (11729649_at) / RFU, ZNF638 /// ZNF638-IT1 / Fold change vs veh, ZNF638 /// ZNF638-IT1 / RFU, PANK3 / Fold change vs veh, PANK3 / RFU, SH3YL1 / Fold change vs veh, SH3YL1 / RFU, ZEB2 / Fold change vs veh, ZEB2 / RFU, NRIP1 / Fold change vs veh, NRIP1 / RFU, PTTG1IP / Fold change vs veh, PTTG1IP / RFU, CAPN2 / Fold change vs veh, CAPN2 / RFU, MED14 / Fold change vs veh, MED14 / RFU, SNORA58 / Fold change vs veh, SNORA58 / RFU, C1orf63 / Fold change vs veh, C1orf63 / RFU, LRRFIP1 / Fold change vs veh, LRRFIP1 / RFU, NDUFAF7 / Fold change vs veh, NDUFAF7 / RFU, SLC12A2 / Fold change vs veh, SLC12A2 / RFU, IBTK / Fold change vs veh, IBTK / RFU, ESF1 / Fold change vs veh, ESF1 / Fold change vs veh, TMEM50B / RFU, TAOK1 / Fold change vs veh, TAOK1 / RFU, ACBD3 / Fold change vs veh, ACBD3 / RFU, TMA16 / Fold change vs veh, TMA16 / RFU, RWDD3 / Fold change vs veh, RWDD3 / RFU, BCAT1 / Fold change vs veh, BCAT1 / RFU, EDEM3 / Fold change vs veh, EDEM3 / RFU, TMEM33 / Fold change vs veh, TMEM33 / RFU, WDR75 / Fold change vs veh, WDR75 / RFU, AHCTF1 / Fold change vs veh, AHCTF1 / RFU, TFRC / Fold change vs veh, TFRC / RFU, ZDHHC17 / Fold change vs veh, ZDHHC17 / RFU, NOM1 / Fold change vs veh, NOM1 / RFU, ARL8B / Fold change vs veh, ARL8B / RFU, ZBTB11 / Fold change vs veh, ZBTB11 / RFU, TAMM41 / Fold change vs veh, TAMM41 / RFU, KIAA1704 /// LOC100996395 / Fold change vs veh, KIAA1704 /// LOC100996395 / RFU, ING1 / Fold change vs veh, ING1 / RFU, TRMT61B / Fold change vs veh, TRMT61B / RFU, FUBP3 / Fold change vs veh, FUBP3 / RFU, TP53 / Fold change vs veh, TP53 / RFU, TNKS2 / Fold change vs veh, TNKS2 / RFU, ZFP14 / Fold change vs veh, ZFP14 / RFU, ACTR2 / Fold change vs veh, ACTR2 / RFU, PPP3R1 / Fold change vs veh, PPP3R1 / RFU, PIK3R1 / Fold change vs veh, PIK3R1 / RFU, HNRNPA1 / Fold change vs veh, HNRNPA1 / RFU, RNF170 / Fold change vs veh, RNF170 / RFU, ZNF28 / Fold change vs veh, ZNF28 / RFU, RNGTT / Fold change vs veh, RNGTT / RFU, OGT / Fold change vs veh, OGT / RFU, BRD1 / Fold change vs veh, BRD1 / RFU, MARS / Fold change vs veh, MARS / RFU, ZNF655 / Fold change vs veh, ZNF655 / RFU, FAHD1 / Fold change vs veh, FAHD1 / RFU, BDP1 / Fold change vs veh, BDP1 / RFU, LRRCC1 / Fold change vs veh, LRRCC1 / RFU, ARID1A / Fold change vs veh, ARID1A / RFU, ZNF146 / Fold change vs veh, ZNF146 / RFU, ZNF330 / Fold change vs veh, ZNF330 / RFU, GPN3 / Fold change vs veh, GPN3 / RFU, C9orf123 / Fold change vs veh, C9orf123 / RFU, N4BP2L2 / Fold change vs veh, N4BP2L2 / RFU, ARFIP1 / Fold change vs veh, ARFIP1 / RFU, FAM179B / Fold change vs veh, FAM179B / RFU, BCL10 / Fold change vs veh, BCL10 / RFU, UHRF1BP1L / Fold change vs veh, UHRF1BP1L / RFU, BET1 / Fold change vs veh, BET1 / RFU, CNOT2 / Fold change vs veh, CNOT2 / RFU, ZNF268 / Fold change vs veh, ZNF268 / Fold change vs veh, ZNF507 / RFU, DGCR2 / Fold change vs veh, DGCR2 / RFU, WDSUB1 / Fold change vs veh, WDSUB1 / Fold change vs veh, HSP90B1 /// MIR3652 / RFU, ADSS / Fold change vs veh, ADSS / RFU, GK / Fold change vs veh, GK / RFU, ZNF148 / Fold change vs veh, ZNF148 / RFU, TAF9 / Fold change vs veh, TAF9 / RFU, SLC1A5 / Fold change vs veh, SLC1A5 / RFU, SLMO2 / Fold change vs veh, SLMO2 / RFU, ABCC4 / Fold change vs veh, ABCC4 / RFU, LOC101060439 /// RAP1B / Fold change vs veh, LOC101060439 /// RAP1B / RFU, RFX7 / Fold change vs veh, RFX7 / RFU, GTPBP10 / Fold change vs veh, GTPBP10 / RFU, CNEP1R1 / Fold change vs veh, CNEP1R1 / RFU, BIVM-ERCC5 /// ERCC5 / Fold change vs veh, BIVM-ERCC5 /// ERCC5 / RFU, ILF3 / Fold change vs veh, ILF3 / RFU 11762660_at / Fold change /veh 11762660_at / RFU VCAN (11757783_s_at) / Fold change /veh VCAN (11757783_s_at) / RFU DDX43 (11728927_at) / Fold change /veh DDX43 (11728927_at) / RFU KRT8 (11758188_x_at) / Fold change /veh KRT8 (11758188_x_at) / RFU NKD1 (11759106_at) / Fold change /veh NKD1 (11759106_at) / RFU SRD5A1 (11742802_a_at) / Fold change /veh SRD5A1 (11742802_a_at) / RFU TPSAB1 /// TPSB2 (11721975_s_at) / Fold change /veh TPSAB1 /// TPSB2 (11721975_s_at) / RFU GSTM3 (11746129_a_at) / Fold change /veh GSTM3 (11746129_a_at) / RFU IL23R (11737362_x_at) / Fold change /veh IL23R (11737362_x_at) / RFU TMEM51 (11727254_a_at) / Fold change /veh TMEM51 (11727254_a_at) / RFU PIWIL2 (11732686_x_at) / Fold change /veh PIWIL2 (11732686_x_at) / RFU ORM1 (11744905_x_at) / Fold change /veh ORM1 (11744905_x_at) / RFU CCDC152 (11743942_at) / Fold change /veh CCDC152 (11743942_at) / RFU ECM1 (11717891_a_at) / Fold change /veh ECM1 (11717891_a_at) / RFU IL23R (11748794_a_at) / Fold change /veh IL23R (11748794_a_at) / RFU TNFAIP8L3 (11732012_x_at) / Fold change /veh TNFAIP8L3 (11732012_x_at) / RFU MBOAT4 (11741988_at) / Fold change /veh MBOAT4 (11741988_at) / RFU 11764193_at / Fold change /veh 11764193_at / RFU TMEM53 (11763286_at) / Fold change /veh TMEM53 (11763286_at) / RFU MAGEB2 (11727129_at) / Fold change /veh MAGEB2 (11727129_at) / RFU TMEM200A (11744735_a_at) / Fold change /veh TMEM200A (11744735_a_at) / RFU CCDC152 (11751479_a_at) / Fold change /veh CCDC152 (11751479_a_at) / RFU FAM211A (11726209_a_at) / Fold change /veh FAM211A (11726209_a_at) / RFU RGS16 (11746705_a_at) / Fold change /veh RGS16 (11746705_a_at) / RFU VCAN (11755009_s_at) / Fold change /veh VCAN (11755009_s_at) / RFU RHOB (11743442_s_at) / Fold change /veh RHOB (11743442_s_at) / RFU RGS16 (11720943_a_at) / Fold change /veh RGS16 (11720943_a_at) / RFU RGS16 (11720944_at) / Fold change /veh RGS16 (11720944_at) / RFU, VPS4B / Fold change vs veh, VPS4B / RFU, CREB1 / Fold change vs veh, CREB1 / RFU, DNAJC13 / Fold change vs veh, DNAJC13 / RFU, GNAQ / Fold change vs veh, GNAQ / RFU, CDK5R1 / Fold change vs veh, CDK5R1 / RFU, ZRANB3 / Fold change vs veh, ZRANB3 / RFU, CUL4A / Fold change vs veh, CUL4A / RFU, CCNY / Fold change vs veh, CCNY / RFU, UFL1 / Fold change vs veh, UFL1 / RFU, COG3 / Fold change vs veh, COG3 / RFU, DIAPH2 / Fold change vs veh, DIAPH2 / RFU, SKA2 / Fold change vs veh, SKA2 / RFU, AFF3 / Fold change vs veh, AFF3 / RFU, LMF1 / Fold change vs veh, LMF1 / RFU, IPO11 / Fold change vs veh, IPO11 / RFU, DFFB / Fold change vs veh, DFFB / RFU, FOXP1 / Fold change vs veh, FOXP1 / RFU, CARD8 / Fold change vs veh, CARD8 / RFU, STRN3 / Fold change vs veh, STRN3 / RFU, ADK / Fold change vs veh, ADK / RFU, RASSF2 / Fold change vs veh, RASSF2 / RFU, WIPF1 / Fold change vs veh, WIPF1 / RFU, LARP1B / Fold change vs veh, LARP1B / RFU, RASA1 / Fold change vs veh, RASA1 / RFU, RB1 / Fold change vs veh, RB1 / RFU, PPFIA1 / Fold change vs veh, PPFIA1 / RFU, MAT2A / Fold change vs veh, MAT2A / RFU, CCT5 / Fold change vs veh, CCT5 / RFU, WDR92 / Fold change vs veh, WDR92 / RFU, CUX1 / Fold change vs veh, CUX1 / RFU, TTC7A / Fold change vs veh, TTC7A / RFU, TMEM135 / Fold change vs veh, TMEM135 / RFU, DEPTOR / Fold change vs veh, DEPTOR / RFU, CPM / Fold change vs veh, CPM / RFU, DNAJB6 / Fold change vs veh, DNAJB6 / RFU, CACNA2D3 / Fold change vs veh, CACNA2D3 / RFU, DTX4 / Fold change vs veh, DTX4 / RFU, TFCP2 / Fold change vs veh, TFCP2 / RFU, GMCL1 /// GMCL1P1 / Fold change vs veh, GMCL1 /// GMCL1P1 / RFU, AEBP2 / Fold change vs veh, AEBP2 / RFU, SNHG1 /// SNORD22 /// SNORD25 /// SNORD26 /// SNORD27 /// SNORD28 /// SNORD29 /// SNORD31 / Fold change vs veh, SNHG1 /// SNORD22 /// SNORD25 /// SNORD26 /// SNORD27 /// SNORD28 /// SNORD29 /// SNORD31 / Fold change (Aza/veh), C12orf56 (ProbeSet 11735607_a_at) / Fold change (ACY-1035/veh), C12orf56 (ProbeSet 11735607_a_at) / Fold change (Aza/veh), FGFR1OP (ProbeSet 11751329_s_at) / Fold change (ACY-1035/veh), FGFR1OP (ProbeSet 11751329_s_at) / Fold change (Aza/veh), VPS36 (ProbeSet 11739960_a_at) / Fold change (ACY-1035/veh), VPS36 (ProbeSet 11739960_a_at) / RFU SYPL1 (11715823_x_at) / Fold change /veh SYPL1 (11715823_x_at) / RFU IGFBP7 (11715501_s_at) / Fold change /veh IGFBP7 (11715501_s_at) / RFU REEP3 (11722064_at) / Fold change /veh REEP3 (11722064_at) / RFU IGLL1 (11728026_x_at) / Fold change /veh IGLL1 (11728026_x_at): dose or concentration left out as unconfirmed
Details: ProbeSet 11729173_a_at; LIST D

## Nc1ccc(-c2cccs2)cc1NC(=O)c1ccc2c(c1)cc(C1CC1)n2CCN1CCOCC1 [ACY-1035]
  RFU, SKA2: 338.69 RFU

— PMC5218480 (PLoS ONE, 2017)
